In patent US4766110A, “Novel complex amido and imido derivatives of carboxyalkyl peptides” (priority 1986, dated 1988):
Entries after “also recorded” stand apart in the source; their conditions may differ.

Legend:
[1] = tested on: mean arterial blood pressure response to angiotensin I; experiment: Intravenous effectiveness: blood pressure response to angiotensin I in anesthetized rats; type: in vivo; settings: for Blood Pressure Response to 400 ng/kg of Angiotensin I: rat, 0.5 μmole/kg IV
Protocol: Rats (190-290 g body weight) were fasted overnight and then anesthetized with intraperitoneal pentobarbital, 50-60 mg/kg. Tracheostomy was performed and the animals were ventilated mechanically. A cannula was inserted into a femoral vein for injection of angiotensin I, and a second cannula was inserted into a common carotid artery for direct measurement of arterial blood pressure. Heparin, 1,000 units, was injected via the femoral vein to prevent coagulation. Blood pressure was measured with a pressure transducer connected to a polygraph. The rats were injected with […] of angiotensin I in 20 μl of 0.9 g % NaCl, an amount of angiotensin I sufficient to raise mean arterial blood pressure by approximately 48 mm Hg.
After the responsiveness of a given rat to angiotensin I was established, the named compound at 0.5 μmole/kg (drug dissolved in 15 microliters of 0.9% NaCl) was given intravenously. At time intervals, the effects of 400 ng/kg of angiotensin I on mean arterial blood pressure were tested. Results are shown below:
Experiments were carried out using rats according to Example 30.

[2] = molecular target: T1, human plasma angiotensin converting enzyme (Homo sapiens, UniProt P12821); experiment: In vitro assay of inhibition of angiotensin converting enzyme; type: biochemical; settings: [3H]benzoyl-Gly-His-Leu 80 nM, pH 8.0, 37° C., 15 minutes, I50 approximates Ki
T1 construct: partially-purified human plasma angiotensin converting enzyme; from tissue; host or cells: human plasma
Protocol: Compounds of this invention were assayed through the following protocol: 25 microliters of buffer (0.05M Hepes buffer, pH 8.0, plus 0.1M NaCl and 0.75M Na2 SO4) or 25 microliters of an inhibitor in buffer was added to the bottom of a 7 ml liquid scintillation vial. To this was added 100 microliters of buffered substrate [S], [^3 H]benzoyl-Gly-His-Leu, 80 nM (25 Ci/mmole). The reaction was started by adding 100 microliters of partially-purified human plasma angiotensin converting enzyme, or 100 microliters of buffer alone. The concentration of enzyme [E] used was that required to hydrolyze 8-12% of substrate when incubated at 37° C. for 15 minutes. The scintillation vials and their contents were incubated at 37° C. for 15 minutes, and the reactions were stopped by adding 200 microliters of 0.5M HCl to each vial. The radioactive reaction product, [^3 H]benzoyl-Gly(hippuric acid), was separated from unhydrolyzed substrate by adding and mixing (by inversion) 3 ml of Ventrex Cocktail No. 1 (Ventrex Laboratories, Inc., Portland, Maine), a fluid disclosed in copending U.S. patent application Ser. No. 184,653, filed Sept. 6, 1980. Extractable ^3 H was quantified by liquid scintillation counting. Substrate, in c.p.m., was quantified by scintillation counting of a vial containing 100 μl of buffered substrate in 5 ml of RIAfluor (New England Nuclear). The reaction mixture containing al constituents except for inhibitor was termed the control (C). The reaction mixture lacking enzyme and inhibitor was called the blank (B). Reaction mixtures containing inhibitor (varied over the range of 10^-4 -10^-12 M) were called the test (T) reactions. Under the conditions of this assay, the reaction obeys first order enzyme kinetics, thus the concentration of inhibitor required to inhibit the rate of hydrolysis by half (I50) approximates the Ki value. The results were estimated by use of the formula: [formula] where C=control c.p.m.; B=blank c.p.m.; [S]=substrate c.p.m. The factor 100 converts fractional substrate utilization into percentage utilization,and 1/15 minute corrects to percentage substrate utilization/minute. Thus, [E] is enzyme activity in percentage substrate utilization/minute. By substituting T for C, hydrolysis rates are computed for the test reaction mixtures. By comparing a given test rate against the control rate, the degree of inhibition can be computed.

[3] = cited from earlier work
[4] = Loss of activity of aqueous SQ14225 solution on standing; type: physicochemical; settings: 1 mg per ml, pH of about 8, ambient conditions

T1 sequence (P12821 30-1232 limits assumed): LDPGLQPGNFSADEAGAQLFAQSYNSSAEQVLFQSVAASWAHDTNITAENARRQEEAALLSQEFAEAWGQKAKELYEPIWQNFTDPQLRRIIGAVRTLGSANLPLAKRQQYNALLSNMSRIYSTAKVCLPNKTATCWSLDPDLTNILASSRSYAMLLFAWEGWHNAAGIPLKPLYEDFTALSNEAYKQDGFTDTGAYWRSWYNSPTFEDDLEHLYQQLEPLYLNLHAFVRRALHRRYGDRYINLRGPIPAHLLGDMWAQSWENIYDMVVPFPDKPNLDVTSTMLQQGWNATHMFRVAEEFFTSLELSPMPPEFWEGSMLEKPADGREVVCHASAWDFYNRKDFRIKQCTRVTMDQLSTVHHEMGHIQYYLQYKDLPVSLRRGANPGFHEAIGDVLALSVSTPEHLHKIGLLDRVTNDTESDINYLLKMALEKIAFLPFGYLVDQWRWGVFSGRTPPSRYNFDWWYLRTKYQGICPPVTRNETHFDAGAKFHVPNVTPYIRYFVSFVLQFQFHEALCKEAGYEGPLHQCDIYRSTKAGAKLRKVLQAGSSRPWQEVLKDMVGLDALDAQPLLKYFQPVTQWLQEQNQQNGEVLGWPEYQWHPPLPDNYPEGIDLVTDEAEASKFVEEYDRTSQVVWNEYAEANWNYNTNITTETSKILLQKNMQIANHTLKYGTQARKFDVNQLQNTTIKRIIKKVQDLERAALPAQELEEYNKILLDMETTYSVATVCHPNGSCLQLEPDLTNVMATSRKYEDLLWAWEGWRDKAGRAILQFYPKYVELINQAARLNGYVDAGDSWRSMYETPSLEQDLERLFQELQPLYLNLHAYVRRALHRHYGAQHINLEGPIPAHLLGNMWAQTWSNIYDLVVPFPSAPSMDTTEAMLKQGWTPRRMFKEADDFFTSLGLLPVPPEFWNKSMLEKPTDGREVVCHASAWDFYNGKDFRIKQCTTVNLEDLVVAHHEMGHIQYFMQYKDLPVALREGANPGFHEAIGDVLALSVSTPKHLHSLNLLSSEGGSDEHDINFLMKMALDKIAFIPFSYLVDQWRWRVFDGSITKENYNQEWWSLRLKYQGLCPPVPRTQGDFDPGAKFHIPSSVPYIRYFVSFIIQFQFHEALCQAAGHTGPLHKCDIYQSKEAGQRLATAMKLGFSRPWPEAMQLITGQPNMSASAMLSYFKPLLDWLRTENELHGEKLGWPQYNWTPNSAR

Row | IC50 [2] | Structure (SMILES) | Blood Pressure Response to 400 ng/kg of Angiotensin I ([1]; 5 min after administration) | Blood Pressure Response to 400 ng/kg of Angiotensin I ([1]; 10 min after administration) | Blood Pressure Response to 400 ng/kg of Angiotensin I ([1]; 15 min after administration) | Blood Pressure Response to 400 ng/kg of Angiotensin I ([1]; 20 min after administration) | Blood Pressure Response to 400 ng/kg of Angiotensin I ([1]; 25 min after administration) | Blood Pressure Response to 400 ng/kg of Angiotensin I ([1]; 30 min after administration) | Blood Pressure Response to 400 ng/kg of Angiotensin I ([1]; 50 min after administration) | Blood Pressure Response to 400 ng/kg of Angiotensin I ([1]; 60 min after administration) | Blood Pressure Response to 400 ng/kg of Angiotensin I ([1]; 70 min after administration) | Blood Pressure Response to 400 ng/kg of Angiotensin I ([1]; 80 min after administration) | Blood Pressure Response to 400 ng/kg of Angiotensin I ([1]; +1 min after administration) | also measured
1 | 5.2 nM | CC(N[C@@H](CCC(=O)Nc1ccccc1)C(=O)O)C(=O)N1CCC[C@H]1C(=O)O (stereo partly drawn) [Example 26, N-[L-1-carboxy-3-(carbo-anilide)propyl]-Alanyl-L-Proline] | 37 % of Control | 37 % of Control | 40 % of Control | 40 % of Control | 40 % of Control | 35 % of Control | 46 % of Control | 46 % of Control | 48 % of Control | 52 % of Control | 42 % of Control | Blood Pressure Response to 400 ng/kg of Angiotensin I ([1]; 40 min after administration): 35 % of Control; Blood Pressure Response to 400 ng/kg of Angiotensin I ([1]; 90 min after administration): 54 % of Control; Blood Pressure Response to 400 ng/kg of Angiotensin I ([1]; 102 min after administration): 62.5 % of Control; IC50 ([2]; listed as N-[L-1-carboxy-3-(carboanilide)propyl]-D,L-Ala-L-Pro): ~1 nM
2 | 0.23 nM | CC(N[C@@H](CCC(=O)Nc1ccc(I)cc1)C(=O)O)C(=O)N1CCC[C@H]1C(=O)O (stereo partly drawn) [Example 27, N-[L-1-carboxy-3-(carbo-4-iodo-anilide)propyl]-Alanyl-L-Proline] | 42 % of Control | 46 % of Control | 52 % of Control | 60 % of Control | 67 % of Control | 71 % of Control | 83 % of Control | 92 % of Control | 100 % of Control | 104 % of Control | 33 % of Control | increase in intravenous effectiveness on removal of iodine ([1]; de-iodo compound versus the 4-iodoanilide): three-fold; Blood Pressure Response to 400 ng/kg of Angiotensin I ([1]; 35 min after administration): 71 % of Control; IC50 ([2]; listed as N-[L-1-carboxy-3-(carbo-4-iodoanilide)propyl]-D,L-Ala-L-Pro): ~1 nM
3 | 140 nM | CC(N[C@@H](CC(=O)N1CCCC1)C(=O)O)C(=O)N1CCC[C@H]1C(=O)O (stereo partly drawn) [Example 28, N-[L-1-carboxy-2-(carbopyrrolide)ethyl]-Alanyl-L-Proline] | – | – | – | – | – | – | – | – | – | – | – | IC50 ([2]; listed as N-[L-1-carboxy-2-(carbopyrrolide)ethyl]-D,L-Ala-Pro): ~100 nM
4 | – | C[C@H](CS)C(=O)N1CCC[C@H]1C(=O)O [SQ14225, D-3-mercapto-2-methylpropanoyl-L-proline] | – | – | – | – | – | – | – | – | – | – | – | renal biopsy findings ([3]; 13 patients treated with SQ14225, Hoorntje et al.): evidence of immune complex deposition along the glomerular basement membranes; adverse effects in man ([3]; patients, Gavras et al.): occasional allergic reactions; also recorded: fevers and rashes; activity of fresh aqueous solution on standing [4]: becomes substantially less active upon standing for as little as 30 minutes
